Calls of active or inactive are those of the source.
Key:
[1] = target: T1, High affinity choline transporter 1 (Homo sapiens, UniProt Q9GZV3); experiment: CHT inhibitors, dose response, cell-based, 5-point CRC, membrane potential dye (AID 504840); format: functional
T1 sequence (Q9GZV3 whole entry): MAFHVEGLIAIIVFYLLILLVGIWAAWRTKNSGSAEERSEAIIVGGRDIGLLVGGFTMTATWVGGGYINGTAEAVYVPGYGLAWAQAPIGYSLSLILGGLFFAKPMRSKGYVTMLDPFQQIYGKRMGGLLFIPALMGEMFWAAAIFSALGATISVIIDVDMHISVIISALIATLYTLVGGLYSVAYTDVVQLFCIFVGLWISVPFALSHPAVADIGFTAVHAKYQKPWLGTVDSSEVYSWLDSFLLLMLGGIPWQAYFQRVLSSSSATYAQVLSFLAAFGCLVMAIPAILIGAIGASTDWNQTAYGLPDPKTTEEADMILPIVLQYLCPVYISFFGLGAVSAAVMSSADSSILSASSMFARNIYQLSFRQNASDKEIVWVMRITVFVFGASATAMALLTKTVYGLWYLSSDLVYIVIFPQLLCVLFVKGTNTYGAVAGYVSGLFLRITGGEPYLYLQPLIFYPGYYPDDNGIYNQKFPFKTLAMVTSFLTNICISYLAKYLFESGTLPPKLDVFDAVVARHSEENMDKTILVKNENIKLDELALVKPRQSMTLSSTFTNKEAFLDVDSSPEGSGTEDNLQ

[2] = target: Glucose-6-phosphate 1-dehydrogenase (Homo sapiens, UniProt P11413); experiment: human G6PD enzyme inhibitors, dose response, selectivity assay for P. falciparum G6PD inhibitor project, biochemical, fluorescence (AID 504792); format: functional
[3] = target: T2, Rac GTPase-activating protein 1 (Homo sapiens, UniProt Q9H0H5); experiment: MgcRacGAP GTPase-activating activity inhibitors, confirmation, biochemical, ADP Hunter fluorescence, primary and confirmatory (AID 624330); format: functional
T2 sequence (Q9H0H5 whole entry): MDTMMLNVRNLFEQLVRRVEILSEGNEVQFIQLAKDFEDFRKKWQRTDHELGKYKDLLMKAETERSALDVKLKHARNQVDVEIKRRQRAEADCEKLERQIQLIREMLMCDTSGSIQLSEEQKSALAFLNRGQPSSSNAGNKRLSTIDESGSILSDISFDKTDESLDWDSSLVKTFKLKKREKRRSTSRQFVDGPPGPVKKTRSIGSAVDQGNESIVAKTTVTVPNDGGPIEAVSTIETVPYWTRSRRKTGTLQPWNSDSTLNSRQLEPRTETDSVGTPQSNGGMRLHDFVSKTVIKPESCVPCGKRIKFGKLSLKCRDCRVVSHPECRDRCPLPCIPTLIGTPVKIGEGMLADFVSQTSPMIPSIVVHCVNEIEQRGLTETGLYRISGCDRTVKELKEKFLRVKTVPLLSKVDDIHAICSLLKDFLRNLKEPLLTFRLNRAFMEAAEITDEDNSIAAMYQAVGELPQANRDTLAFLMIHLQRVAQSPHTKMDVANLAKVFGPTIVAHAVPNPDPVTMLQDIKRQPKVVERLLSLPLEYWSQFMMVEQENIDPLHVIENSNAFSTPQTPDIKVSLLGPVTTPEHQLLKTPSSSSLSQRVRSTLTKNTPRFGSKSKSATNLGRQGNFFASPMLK

[4] = target: T3, Short transient receptor potential channel 4 (Mus musculus, UniProt Q9QUQ5); experiment: mouse TRPC4 channel inhibitors, dose response, cell-based, HEK293 TRPC4/mu-opioid, Fluo-4 calcium (AID 434942); format: functional;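 note: potency of inhibitors blocking the TRPC4 calcium response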
T3 sequence (Q9QUQ5 whole entry): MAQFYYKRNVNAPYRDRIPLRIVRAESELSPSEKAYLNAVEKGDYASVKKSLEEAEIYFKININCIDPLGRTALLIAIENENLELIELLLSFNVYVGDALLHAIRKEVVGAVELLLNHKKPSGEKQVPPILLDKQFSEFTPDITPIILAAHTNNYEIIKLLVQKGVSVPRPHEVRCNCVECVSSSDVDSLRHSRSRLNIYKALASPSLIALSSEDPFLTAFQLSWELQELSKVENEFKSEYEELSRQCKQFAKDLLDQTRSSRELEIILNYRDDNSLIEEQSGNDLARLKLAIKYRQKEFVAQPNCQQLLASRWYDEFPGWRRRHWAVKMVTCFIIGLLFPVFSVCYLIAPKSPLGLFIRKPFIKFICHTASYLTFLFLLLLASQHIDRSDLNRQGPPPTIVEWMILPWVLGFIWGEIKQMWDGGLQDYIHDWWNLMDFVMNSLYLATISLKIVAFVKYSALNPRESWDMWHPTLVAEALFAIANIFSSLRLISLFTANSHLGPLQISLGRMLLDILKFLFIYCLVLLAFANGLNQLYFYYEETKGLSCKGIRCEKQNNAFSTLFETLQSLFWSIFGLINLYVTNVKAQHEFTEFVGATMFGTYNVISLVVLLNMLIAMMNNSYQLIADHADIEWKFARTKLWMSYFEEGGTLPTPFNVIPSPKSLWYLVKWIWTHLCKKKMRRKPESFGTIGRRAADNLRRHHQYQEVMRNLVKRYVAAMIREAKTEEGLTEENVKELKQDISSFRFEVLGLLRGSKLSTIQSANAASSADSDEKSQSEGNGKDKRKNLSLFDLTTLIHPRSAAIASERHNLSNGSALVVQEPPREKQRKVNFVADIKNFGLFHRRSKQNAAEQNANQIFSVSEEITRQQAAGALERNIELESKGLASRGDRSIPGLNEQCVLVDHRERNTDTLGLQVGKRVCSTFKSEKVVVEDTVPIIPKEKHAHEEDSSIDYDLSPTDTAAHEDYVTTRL

[5] = target: 26S proteasome non-ATPase regulatory subunit 14 (Homo sapiens, UniProt O00487); experiment: inhibition of proteasome subunit RPN11 – biochemical, fluorescence polarization, uHTS hits, confirmation (AID 602368); format: functional
[6] = target: 72 kDa type IV collagenase (Homo sapiens, UniProt P08253); experiment: Dose Response validation of uHTS RPN11 inhibitor hits using a MMP-2 Fluorescence assay.; format: functional
[7] = target: Prothrombin (Bos taurus, UniProt P00735); experiment: thrombin inhibition, dose response, biochemical, fluorescence polarization, uHTS hits (AID 602369); format: functional
[8] = target: T4, DNA repair protein RAD52 homolog (Homo sapiens, UniProt P43351); format: functional, biochemical
T4 sequence (P43351 whole entry): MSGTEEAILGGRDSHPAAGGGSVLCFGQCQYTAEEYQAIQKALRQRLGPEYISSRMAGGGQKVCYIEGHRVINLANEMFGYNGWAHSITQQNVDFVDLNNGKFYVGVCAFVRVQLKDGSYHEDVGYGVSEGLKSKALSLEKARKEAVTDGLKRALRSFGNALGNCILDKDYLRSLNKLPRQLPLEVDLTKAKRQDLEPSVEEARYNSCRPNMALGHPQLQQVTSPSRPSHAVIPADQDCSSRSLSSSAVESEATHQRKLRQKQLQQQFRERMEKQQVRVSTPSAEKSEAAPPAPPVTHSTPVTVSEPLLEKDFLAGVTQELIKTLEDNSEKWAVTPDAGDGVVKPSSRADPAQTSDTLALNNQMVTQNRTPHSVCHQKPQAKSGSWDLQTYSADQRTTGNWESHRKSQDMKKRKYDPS

[9] = test system: Vero; experiment: cells; format: functional; conditions: Chlorocebus sabaeus
[10] = test system: HeLa; experiment: HeLa cell cytotoxicity, dose response, cytotoxicity control for MITF activator project, CellTiter-Glo luminescence, cherry-pick samples (AID 540259); format: functional, cell-based; conditions: Homo sapiens
[11] = target: FAD-linked sulfhydryl oxidase ALR (Homo sapiens, UniProt P55789); experiment: inhibitors of human ALR sulfhydryl oxidase, dose response, biochemical, H2O2 detection, luminescence, cherry-pick (AID 493248)
[12] = inhibitors of Vif binding to APOBEC3G peptide, primary screen, biochemical, TR-FRET, GST-Vif 1-94, biotin-A3G peptide, dose response retest (AID 1117319); format: functional;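 note: TR-FRET signal of purified GST-Vif binding a biotinylated A3G peptide; inhibitors lower the FRET signal by blocking Vif and A3G binding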
[13] = Luminescence Cell-Based Dose Response HTS to Identify Activators of Luciferase Translation or Activity in H4 […] Cells. [Related pubchem assays: 1829 (Project Summary), 1814 (Primary HTS)]; format: functional
[14] = test system: H4; experiment: Luminescence Cell-Based Dose Response HTS to Identify Activators of 5'UTR Stem-Loop Driven Prion Protein mRNA Translation in H4 Neuroglioblastoma Cells. [Related pubchem assays: 1829 (Project Summary), 1814 (Primary HTS)]; format: functional; conditions: Homo sapiens
[15] = Luminescence Cell-Based Dose Confirmation HTS to Identify Activators of 5'UTR Stem-Loop Driven Alpha-Synuclein mRNA Translation in H4 Neuroglioblastoma Cells. [Related pubchem assays: 1829 (Project Summary), 1814 (Primary HTS)]; format: functional
[16] = target: Cytochrome P450 2D6 (Homo sapiens, UniProt P10635);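 note: CYP2D6 member of a cytochrome P450 panel assay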
[17] = growth suppression of beta-catenin-knockout colon cells, dose response, cell-based, HCT116, human colon tumor (AID 1045); format: functional;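 note: HCT116 colon tumor cells with beta catenin knocked out; cells exposed to compound for 60 hours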
[18] = growth suppression of PTEN-null colon cells, dose response, cell-based, HCT116 PTEN knockout (AID 1047); format: functional;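 note: HCT116 colon tumor cells with PTEN knocked out; cells exposed to compound for 60 hours before readout; potency for loss of cell viability measured by luminescence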
[19] = microbe, parasite or virus in culture; format: functional; conditions: Mycobacterium tuberculosis
[20] = target: Large T antigen (Simian virus 40, UniProt P03070); format: functional, Betapolyomavirus macacae;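 note: Confirmatory-stage PubChem screen for compounds that inhibit SV40 T antigen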
[21] = target: Genome polyprotein (dengue virus type 2, UniProt P29990); experiment: Dengue-2 NS5 methyltransferase inhibitors, primary screen, biochemical, confirmation dose response (AID 588689); format: functional
Sequence of Genome polyprotein (P29990 2492-3391 limits assumed): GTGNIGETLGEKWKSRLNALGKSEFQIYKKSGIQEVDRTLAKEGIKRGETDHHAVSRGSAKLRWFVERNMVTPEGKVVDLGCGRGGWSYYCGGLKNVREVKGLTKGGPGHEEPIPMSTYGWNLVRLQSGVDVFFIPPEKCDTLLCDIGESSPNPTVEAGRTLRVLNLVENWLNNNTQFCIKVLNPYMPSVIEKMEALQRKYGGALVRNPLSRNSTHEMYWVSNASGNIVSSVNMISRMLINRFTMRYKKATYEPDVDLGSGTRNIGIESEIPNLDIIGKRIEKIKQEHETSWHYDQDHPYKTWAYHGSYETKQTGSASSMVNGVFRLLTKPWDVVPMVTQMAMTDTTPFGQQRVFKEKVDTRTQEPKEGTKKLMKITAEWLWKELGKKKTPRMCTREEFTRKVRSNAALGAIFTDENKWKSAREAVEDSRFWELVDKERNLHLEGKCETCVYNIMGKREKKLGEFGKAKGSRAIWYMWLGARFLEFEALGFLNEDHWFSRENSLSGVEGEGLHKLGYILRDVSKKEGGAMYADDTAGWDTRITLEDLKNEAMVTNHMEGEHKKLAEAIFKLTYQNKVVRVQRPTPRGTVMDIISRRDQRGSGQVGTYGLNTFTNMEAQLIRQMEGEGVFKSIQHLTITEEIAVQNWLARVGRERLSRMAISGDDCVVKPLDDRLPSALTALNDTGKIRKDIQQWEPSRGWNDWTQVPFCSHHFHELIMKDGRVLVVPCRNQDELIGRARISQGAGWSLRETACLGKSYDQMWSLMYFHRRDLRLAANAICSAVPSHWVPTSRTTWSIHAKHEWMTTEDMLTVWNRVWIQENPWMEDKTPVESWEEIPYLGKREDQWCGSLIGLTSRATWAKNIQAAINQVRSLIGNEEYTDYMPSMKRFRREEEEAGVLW

Sequence of 72 kDa type IV collagenase (P08253 whole entry): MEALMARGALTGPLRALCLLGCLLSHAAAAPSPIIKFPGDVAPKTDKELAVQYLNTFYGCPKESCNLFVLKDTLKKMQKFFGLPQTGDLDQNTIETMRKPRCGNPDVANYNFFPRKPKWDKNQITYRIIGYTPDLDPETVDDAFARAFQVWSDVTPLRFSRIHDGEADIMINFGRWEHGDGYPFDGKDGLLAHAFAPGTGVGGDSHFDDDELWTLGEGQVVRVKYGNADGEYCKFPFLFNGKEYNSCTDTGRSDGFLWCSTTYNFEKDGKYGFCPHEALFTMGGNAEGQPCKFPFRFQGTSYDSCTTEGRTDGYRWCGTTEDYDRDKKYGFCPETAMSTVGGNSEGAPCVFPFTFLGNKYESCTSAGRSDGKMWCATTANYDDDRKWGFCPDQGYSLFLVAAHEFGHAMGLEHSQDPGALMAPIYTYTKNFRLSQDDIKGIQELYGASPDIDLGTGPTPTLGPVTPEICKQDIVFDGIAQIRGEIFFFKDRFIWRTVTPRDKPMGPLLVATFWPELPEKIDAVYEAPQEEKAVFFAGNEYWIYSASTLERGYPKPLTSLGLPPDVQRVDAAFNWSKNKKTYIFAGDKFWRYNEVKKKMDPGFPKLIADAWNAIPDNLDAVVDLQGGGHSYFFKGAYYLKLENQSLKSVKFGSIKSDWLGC
Sequence of Glucose-6-phosphate 1-dehydrogenase (P11413 whole entry): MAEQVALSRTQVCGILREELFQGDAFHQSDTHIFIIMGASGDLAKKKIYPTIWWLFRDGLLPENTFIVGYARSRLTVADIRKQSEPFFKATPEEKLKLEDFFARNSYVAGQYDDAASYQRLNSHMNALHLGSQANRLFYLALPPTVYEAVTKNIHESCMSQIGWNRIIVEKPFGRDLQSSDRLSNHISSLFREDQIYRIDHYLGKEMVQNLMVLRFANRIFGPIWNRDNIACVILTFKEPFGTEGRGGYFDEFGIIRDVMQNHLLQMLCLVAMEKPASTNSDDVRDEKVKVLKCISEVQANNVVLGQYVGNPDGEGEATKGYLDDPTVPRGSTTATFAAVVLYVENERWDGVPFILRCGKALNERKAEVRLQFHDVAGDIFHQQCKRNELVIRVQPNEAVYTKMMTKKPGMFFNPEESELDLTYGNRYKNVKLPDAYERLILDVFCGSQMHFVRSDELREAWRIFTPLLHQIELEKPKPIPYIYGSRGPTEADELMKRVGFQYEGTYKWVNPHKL
Sequence of FAD-linked sulfhydryl oxidase ALR (P55789 whole entry): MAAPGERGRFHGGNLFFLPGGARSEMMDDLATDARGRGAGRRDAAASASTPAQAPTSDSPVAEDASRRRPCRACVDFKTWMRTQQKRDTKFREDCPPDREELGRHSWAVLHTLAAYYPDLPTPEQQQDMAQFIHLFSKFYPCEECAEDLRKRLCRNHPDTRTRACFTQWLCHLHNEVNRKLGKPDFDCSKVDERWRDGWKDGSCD
Sequence of 26S proteasome non-ATPase regulatory subunit 14 (O00487 whole entry): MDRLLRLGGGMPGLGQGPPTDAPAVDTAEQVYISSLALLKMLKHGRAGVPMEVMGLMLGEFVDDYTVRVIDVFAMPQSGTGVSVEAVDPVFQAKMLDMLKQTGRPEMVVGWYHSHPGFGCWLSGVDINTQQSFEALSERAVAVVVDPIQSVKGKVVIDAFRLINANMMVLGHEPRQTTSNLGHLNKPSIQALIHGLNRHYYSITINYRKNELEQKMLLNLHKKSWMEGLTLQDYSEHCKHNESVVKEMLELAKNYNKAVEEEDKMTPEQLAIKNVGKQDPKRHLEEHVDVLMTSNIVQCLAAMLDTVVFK
Sequence of Large T antigen (P03070 whole entry): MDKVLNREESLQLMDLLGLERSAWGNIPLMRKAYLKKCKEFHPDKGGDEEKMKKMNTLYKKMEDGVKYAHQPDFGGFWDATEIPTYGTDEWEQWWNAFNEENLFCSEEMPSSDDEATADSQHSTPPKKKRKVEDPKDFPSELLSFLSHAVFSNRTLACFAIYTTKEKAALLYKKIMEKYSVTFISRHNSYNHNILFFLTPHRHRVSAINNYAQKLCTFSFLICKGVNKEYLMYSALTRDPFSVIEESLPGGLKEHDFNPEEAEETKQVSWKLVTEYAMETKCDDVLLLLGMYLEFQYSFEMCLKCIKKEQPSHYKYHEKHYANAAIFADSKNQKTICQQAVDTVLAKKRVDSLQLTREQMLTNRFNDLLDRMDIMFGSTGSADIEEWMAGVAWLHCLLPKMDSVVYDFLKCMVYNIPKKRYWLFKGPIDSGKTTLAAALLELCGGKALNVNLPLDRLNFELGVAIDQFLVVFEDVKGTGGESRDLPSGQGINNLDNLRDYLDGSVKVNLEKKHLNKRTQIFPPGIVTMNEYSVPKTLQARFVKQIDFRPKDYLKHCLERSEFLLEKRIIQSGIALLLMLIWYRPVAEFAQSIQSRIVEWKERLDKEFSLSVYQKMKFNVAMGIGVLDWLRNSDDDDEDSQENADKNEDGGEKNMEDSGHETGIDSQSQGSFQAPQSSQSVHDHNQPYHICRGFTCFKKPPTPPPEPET
Sequence of Cytochrome P450 2D6 (P10635 whole entry): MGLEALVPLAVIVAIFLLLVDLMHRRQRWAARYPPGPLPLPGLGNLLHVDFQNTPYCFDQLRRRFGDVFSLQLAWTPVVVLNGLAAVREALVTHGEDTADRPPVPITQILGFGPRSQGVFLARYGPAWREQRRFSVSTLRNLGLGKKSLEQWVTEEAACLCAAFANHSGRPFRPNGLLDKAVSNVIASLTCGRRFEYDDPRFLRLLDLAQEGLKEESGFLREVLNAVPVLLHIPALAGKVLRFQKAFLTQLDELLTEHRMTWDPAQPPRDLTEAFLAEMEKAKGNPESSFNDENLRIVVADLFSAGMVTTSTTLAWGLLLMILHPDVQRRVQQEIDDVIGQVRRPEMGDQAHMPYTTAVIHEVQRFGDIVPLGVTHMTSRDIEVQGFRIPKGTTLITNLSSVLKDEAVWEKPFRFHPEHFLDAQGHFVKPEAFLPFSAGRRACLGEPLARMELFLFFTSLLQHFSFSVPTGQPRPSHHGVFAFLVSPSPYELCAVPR

COc1ccc(Cn2cnc3c([N+](=O)[O-])c(C)c(C)cc32)cc1
IC50 [1]: 12.3 µM (active)

Cn1c(=O)[nH]c(=O)c2c1nc(S)n2CCCc1ccccc1
IC50 [2]: > 80 µM (inactive) | IC50 [3]: 19.7 µM (active)

CCOC(=O)N1CCN(C(=O)CCCn2c(=O)[nH]c3ccccc3c2=O)CC1
IC50 [1]: 13.2 µM (active)

Cc1cccc(NC(=O)CSc2nnc(-c3cc(C)n(-c4ccccc4)c3C)o2)c1C
EC50 [4]: 2.11 µM (active)

COc1ccc(-c2cn3cc(C)ccc3n2)cc1Br
IC50 [2]: > 80 µM (inactive)

Cc1c(P(=S)(c2ccccc2)c2ccccc2)[n+]2ccccc2n1C
IC50 [5]: 5.42 µM (active) | IC50 [6]: > 100 µM (inactive) | IC50 [7]: 62.8 µM (active) | AC50 [8]: 10.4 µM (active)

O=C(COc1cccc2cccnc12)N/N=C/c1cccn1-c1ccc(F)cc1
CC50 [9]: > 25 µM (active)

COc1cc(C=O)ccc1OCc1cccc(Br)c1
AC50 [10]: 85.9 µM (active)

CCN(CC)c1ccc([C@H]2[C@@H]3CCCC[C@]3(O)CCN2CC(=O)NCc2ccco2)cc1
AC50 [11]: 1.54 µM (active)

COC(=O)CN1C(=O)C(O)=C(C(C)=O)C1c1ccc([N+](=O)[O-])cc1 (configuration not stated)
IC50 [12]: > 100 µM (active)

Cc1ccc(CSc2nnc(CCNC(=O)OC(C)(C)C)o2)cc1
IC50 [1]: 12.9 µM (active)

c1coc(CNc2nc(-c3cccs3)cs2)c1
IC50 [12]: > 100 µM (active)

CCc1ccc(NC(=O)CCc2nc3sc4c(c3c(=O)[nH]2)CCCC4)cc1
IC50 [5]: 37.6 µM (active) | IC50 [6]: > 100 µM (inactive) | IC50 [7]: 35.9 µM (active)

CCN(CC)C(=O)c1cc2sc3ccccc3c2s1
AC50 [10]: 46.9 µM (active)

CC1CCC(NC(=O)c2ccc(NS(=O)(=O)c3ccc4[nH]c(O)nc4c3)cc2)CC1 (configuration not stated)
EC50 [13]: 27.8 µM (active) | AC50 [10]: 53.8 µM (active) | EC50 [14]: 8.97 µM (active) | EC50 [15]: 23.4 µM (active)

CCOc1cc(CNCCCN2CCOCC2)cc(Br)c1OCC(=O)Nc1cccc(C(F)(F)F)c1
AC50 [16]: 14.1 µM (inconclusive) | EC50 [17]: 7.97 µM (active) | EC50 [18]: 9.96 µM (active) | CC50 [19]: 12.4 µM (active) | EC50 [4]: 6.68 µM (active)

Oc1ccc(Br)cc1CN1CCCCCCC1
AC50 [11]: 7.63 µM (active)

CC(=O)N1CCN(c2ccc(NCc3cccc4ccccc34)cc2)CC1
IC50 [20]: 10.1 µM (active) | AC50 [11]: 1.36 µM (active)

CCOC(=O)C1(CC2CC2)CCN(Cc2cc(Cl)c(O)c(OC)c2)CC1
EC50 [4]: 3.76 µM (active)

O=C(CCCSc1nc2ccccc2s1)NC1=NCCS1
IC50 [1]: 12 µM (active)

CCN1CCN(c2nc(C)nc3c2sc(=S)n3C)CC1
IC50 [2]: > 80 µM (inactive)

Cc1cccc(-c2nnc3sc(-c4ccccc4)nn23)c1
AC50 [10]: 189 µM (active)

COc1ccc(C(C(C(=O)c2cccs2)N2CCOCC2)N2CCOCC2)cc1OC (configuration not stated)
IC50 [12]: > 100 µM (active)

O=C(O)c1ccccc1NC(=O)c1cc(-c2ccccc2)nc2ccccc12
AC50 [11]: 0.703 µM (active)

CC(=O)Nc1ccc(NC(=O)c2sc3nc4c(c(-c5ccc(C)cc5)c3c2N)CCC4)cc1
IC50 [12]: > 100 µM (active)

COc1cc(C(F)(F)F)nc2c(Br)c(C(C)(C)C)nn12
EC50 [4]: 1.5 µM (active)

CCOc1cc(/C=C2\SC(=S)N(NS(=O)(=O)c3ccc(C)cc3)C2=O)ccc1O
IC50 [5]: 36.9 µM (active) | IC50 [6]: 73.8 µM (active) | IC50 [7]: 30.4 µM (active)

O=C1c2ccccc2S(=O)(=O)c2cc(N3CCOCC3)ccc21
IC50 [5]: 10.9 µM (active) | IC50 [6]: > 100 µM (inactive) | IC50 [7]: 24 µM (active)

Cc1cc(O)c(C(C)C)cc1N=Cc1ccc([N+](=O)[O-])cc1
IC50 [2]: 44.4 µM (inactive) | IC50 [21]: 90.1 µM (active)

Cc1cccnc1NC(=O)Nc1cccc(Cl)c1
AC50 [10]: > 350 µM (inactive)

N#CCCn1cc(CNCc2ccccc2)c(-c2cccc([N+](=O)[O-])c2)n1
EC50 [4]: 3.76 µM (active)

O=C(c1ccc(-n2cnnn2)cc1)N1CCOCC1
IC50 [12]: > 100 µM (active)

COc1ccc(O)c(-c2cc(-c3ccccc3[N+](=O)[O-])[nH]n2)c1
AC50 [11]: 4.33 µM (active)

Reference: ChEMBL document CHEMBL1201862, “PubChem BioAssay data set” (2004)
